The record followed here is patent publication US20250018019A1, “TREATMENT OF INTERFERON DRIVEN INFLAMMATION” (The Provost, Fellows, Foundation Scholars and the other …, priority 2023, published 2025).

Assay [1] deals with BMDMs. The assay can be described thus: Seahorse XF Mito Stress Test (respirometry, OCR). The assay is classed as cell-based, mouse. Conditions: BMDMs pre-treated 3 h, LPS 4 h. As to the method: All compounds used DMSO as a vehicle except for 4-hydroxy tamoxifen (EtOH), NAC (PBS), and AOAA for tracing experiments (Media). LPS was used at a concentration of 100 ng/ml for indicated timepoints (2, 3, 4, 6, 8, 24, 48 h). FHIN1 (10 or 20 μM), MMF (50 or 100 μM), DMF (25 μM), AOAA (5 mM), oligomycin (10 μM), CCCP (50 μM) NAC (1 mM), and IMT1 (10 μM) pre-treatments were performed for 3 h prior the addition of LPS. Cells were treated with valinomycin (10 nM) 15 mins before LPS stimulation. Anti-CD210 or IgG control (10 μg/ml) antibodies were added to cells 1 h prior to LPS stimulation. Recombinant mouse IL-10 protein (100 ng/ml) was added to cells at the same time as LPS. Cells were treated with IFN-B1 (220 ng/ml) for 3 h. Cells were treated with C-178 (1 μM) 1 h prior to LPS stimulation or transfection with 2′3′-cGAMP (1.5 μg/ml) for 4 hrs to achieve cGAS-STING activation. Cells were treated with ODN 2088 (1 μM) for 1 hr prior to LPS stimulation or transfection with CPG ODN 1826 (1.5 μg/ml) to achieve TLR9 activation. 3 different timepoints of 4-hydroxy tamoxifen (TAM) (600 nM or 2 μM) or EtOH treatment were performed-these are specified in the individual figure legends. For ‘48 h’ treatments EtOH/TAM was added on day 5 of 6 during the BMDM differentiation protocol. On day 6 they were plated with EtOH/TAM (left overnight) and treated the following day. […]

In assay [2] the test system is BMDMs. Description: RT-qPCR gene expression in BMDMs. The format is cell-based, mouse. Conditions: for IL-1β expression / Il10 expression / Tnfa expression: BMDMs pre-treated 3 h; for Ifnb1 expression following Nrf2 silencing: Nrf2 siRNA. How it is done: All compounds used DMSO as a vehicle except for 4-hydroxy tamoxifen (EtOH), NAC (PBS), and AOAA for tracing experiments (Media). LPS was used at a concentration of 100 ng/ml for indicated timepoints (2, 3, 4, 6, 8, 24, 48 h). FHIN1 (10 or 20 μM), MMF (50 or 100 μM), DMF (25 μM), AOAA (5 mM), oligomycin (10 μM), CCCP (50 μM) NAC (1 mM), and IMT1 (10 μM) pre-treatments were performed for 3 h prior the addition of LPS. Cells were treated with valinomycin (10 nM) 15 mins before LPS stimulation. Anti-CD210 or IgG control (10 μg/ml) antibodies were added to cells 1 h prior to LPS stimulation. Recombinant mouse IL-10 protein (100 ng/ml) was added to cells at the same time as LPS. Cells were treated with IFN-B1 (220 ng/ml) for 3 h. Cells were treated with C-178 (1 μM) 1 h prior to LPS stimulation or transfection with 2′3′-cGAMP (1.5 μg/ml) for 4 hrs to achieve cGAS-STING activation. Cells were treated with ODN 2088 (1 μM) for 1 hr prior to LPS stimulation or transfection with CPG ODN 1826 (1.5 μg/ml) to achieve TLR9 activation. 3 different timepoints of 4-hydroxy tamoxifen (TAM) (600 nM or 2 μM) or EtOH treatment were performed-these are specified in the individual figure legends. For ‘48 h’ treatments EtOH/TAM was added on day 5 of 6 during the BMDM differentiation protocol. On day 6 they were plated with EtOH/TAM (left overnight) and treated the following day. For ‘72 h’ treatments EtOH/TAM was added on day […] of 6 during the BMDM differentiation protocol. On day 6 they were plated with EtOH/TAM (left overnight) and treated the following day. For ‘96 h’ treatments EtOH/TAM was added on day […] of 6 during the BMDM differentiation protocol. On day 6 they were plated with EtOH/TAM and treated 2 days later.
RNA extraction from cells was carried out using a Purelink™ RNA kit (Invitrogen) according to the manufacturer's instructions. BMDMs were treated as required, and following treatment were instantly lysed in 350 μl RNA lysis buffer. Isolated RNA was quantified using a NanoDrop 2000 spectrophotometer, and RNA concentration was normalised to the lowest concentration across all samples with RNAse-free water. If necessary, samples were DNAse-treated after quantification using DNAse I (Thermo Fisher) according to the manufacturer's instructions. Isolated RNA samples were normalised and converted into cDNA using the High-Capacity cDNA Reverse Transcription Kit (Thermo Fisher) according to manufacturer's instructions. 10 μl of RNA (at a maximum concentration of 100 ng/μl) was added to 10 μl of reverse transcription master mix to complete the reaction mixture. Real-time quantitative PCR was performed on the cDNA generated in the previous step, using primers designed in-house and ordered from Eurofins Genomics, as detailed in Table S2. The reaction was performed in a 96-well qPCR plate by a 7500 Fast Real-Time PCR machine (Thermo Fisher). Relative expression (2^−ΔΔCT) was calculated from the CT values for each sample and gene of interest.
Pre-designed silencer select siRNAs for Cgas (s103166), Tmem173 (s91058), Tlr3 (s100579), Tlr9 (s96268), As/(s99640), Tlr7 (s100720), Ddx58 (s106376), Ifih1 (s89787), Nrf2 (s70522), Atf4 (s62689) and negative control (4390843) were ordered from Thermo Fisher. siRNA sequences are given in Table S2. Cells were transfected with 50 nM siRNA using 5 μl lipofectamine RNAiMAX according to manufacturer's instructions (Thermo Fisher). Cells were transfected in medium without serum and antibiotics which was replaced with complete medium 8 hours later. Cells were subsequently left for at least a further 12 hours prior to treatment.
(Quantitative PCR measures a nucleic acid by following its amplification.)

Counter-ions that a name gives are not always drawn.

As to `COC(=O)/C=C/C(=O)OC` [DMF, dimethyl fumarate], in assay [1], the “basal respiration, ATP production and maximal respiration as measured by OCR” value is given as “no effect”. In assay [2] (LPS 4 h), the IL-1β expression result is “reduced”, the Il10 expression result is “decreased” and the Tnfa expression result is recorded as “increased”. The Tmem173 expression entry in assay [2] (BMDMs pre-treated, LPS 4 h) is reported as “Suppression”. In addition, the “Ifnb1 expression following Nrf2 silencing” value in assay [2] (BMDMs, LPS 4 h) is “increased”.

Consider `CCOC(=O)[C@@]12CCCC=C1N(Cc1ccc(-c3ccccc3)cc1)C(=O)[C@H]2CC(=O)NC` [FHIN1, Fumarate hydratase-IN-1], for which the “basal respiration, ATP production and maximal respiration as measured by OCR” value in assay [1] is given as “impaired”. In assay [2] (LPS 4 h), the IL-1β expression entry was “reduced”, the Il10 expression result is given as “decreased” and the Tnfa expression entry is listed as “increased”. Moreover, in assay [2] (BMDMs pre-treated, LPS 4 h), the Ddx58 expression entry is on record as “reduced” and the Tmem173 expression entry is listed as “Suppression”. In addition, in assay [2] (BMDMs, LPS 4 h), the “Ifnb1 expression following Nrf2 silencing” value is “increased”. The “dependence of the FHIN1 IFN-β increase on NAC-sensitive redox stress (Ifnb1 expression)” value in assay [2] (BMDMs, in the presence of NAC, LPS 4 h) is reported as “independent of NAC-sensitive redox stress”. In addition, the “dependence of FHIN1-driven GDF15 on NRF2 and ATF4” value in assay [2] (BMDMs, silencing of Nrf2 or Atf4, LPS 4 h) was “partly NRF2-but not ATF4-dependent”. Moreover, in assay [2] (WT and Mavs−/− BMDMs, LPS 4 h), the “induction of IFN-β (Ifnb1) in MAVS knockout BMDMs” value is “did not impair”.
